Assay results reported in article PMC11358582, “Discovery of a potential bladder cancer inhibitor CHNQD-01281 by regulating EGFR and promoting infiltration of cytotoxic T cells” (Marine Life Science & Technology, 2024).
Converted amounts (≈) assume the structure as drawn.

Key:
T24 xenograft = assay: T24 nude mice xenograft model; type: in vivo, BALB/c-nu mice; conditions: for reduction of Ki67 expression level (IHC): tumor tissue
Protocol: Specific pathogen free (SPF)-grade C57BL/6 mice and BALB/c-nu mice were purchased from Jinan Pengyue Experimental Animal Center (license No. SCXK 20190003). The protocol was approved by the Research Review Committee of the Ocean University of China. All mice were housed in 12-h light and 12-h dark conditions in which the humidity was 50% ± 10% and the temperature was 22 ± 2 °C. All mice had free access to food and water. The human bladder cancer cell line T24 was injected subcutaneously into BALB/c-nu mice to construct a xenograft tumor model. The cell suspension of mouse bladder cancer cell line MB49 was injected into C57BL/6 mice subcutaneously to construct a syngeneic tumor model.
Fixed tissues were embedded in paraffin and then sectioned. The specimens were incubated with antibodies against Ki67, CD3, CD4, CD8 (Servicebio, China) and EGFR (ABclonal, China) at 4 °C overnight. The next day, the slides were washed with 1 × PBST three times for 5 min each and stained with the secondary antibodies and Hoechst 33342 dye (Beyotime, China) for 60 min for IF. For IHC staining, the sections were developed with a rabbit/mouse HRP kits (DAB) (Beyotime, China) according to the manufacturer’s instructions.
Therefore, xenograft and homologous tumor models were constructed to further evaluate the antitumor effect of CHNQD-01281 in vivo. The mouse bladder cancer xenograft model was established by the subcutaneous inoculation of the T24 cell line, then CHNQD-01281 was intraperitoneally administrated for two consecutive weeks (Fig. 5A).

J82 cell line = assay: Colony formation assay; type: cell-based; conditions: Homo sapiens, 288 h, 12 days, read-out: inhibition rate on colony formation
Protocol: T24 and J82 cell lines were seeded in 6-well plates at 500 cells/well. The cells were cultured overnight in medium. Compound CHNQD-01281 was added according to the concentration gradient, and the cells were placed in a 37 °C cell incubator containing 5% CO2 for 12 days. The cells were then fixed with 4% paraformaldehyde for 15 min and stained with crystal violet for 30 min. After that, pictures were taken and colony numbers were counted. The clone formation rate relative to the solvent control group was calculated.
Cell proliferation ability was also detected by colony formation assay (Kabakov et al. [2018]), and the results are shown in Fig. 3A−B. CHNQD-01281 was applied for 12 days to detect long-term proliferation inhibition of T24 and J82 cell lines.

[1] = Solubility in selected aqueous solutions; type: physicochemical
Text: The problem of poor water solubility is one of the factors that seriously restricts the preclinical application of BFA. Therefore, from the perspective of pharmaceutics, it is of great application value to explore safe and effective methods to improve its solubility. Based on the previous screening of commonly used solvents, solubilizers and co-solvents for BFA and its derivatives, we explored the solubility of CHNQD-01281, which was compared and assessed in selected aqueous solutions (Table 1). Saline or PBS were commonly used solvents, but the solubility of BFA or CHNQD-01281 was less than 1 mg/mL when used alone. No significant improvement in solubility was observed after the addition of DMSO or PEG400. […] More importantly, the solution system of CHNQD-01281 with saline/DMSO/solutol HS-15 (85/5/10) can fully meet the needs of follow-up experiments in vivo, such as pharmacodynamics, pharmacokinetics and safety evaluation.

p-AKT/AKT = assay: Western blot of EGFR downstream proteins; type: cell-based, human; conditions: 0.16 µmol/L
Protocol: (§1) T24 and J82 cell lines were lysed in protein lysis buffer, which included phosphatase inhibitors and a cocktail of protease inhibitors. A BCA kit (SparkJade, China) was used to determine the total protein concentration. After protein denaturation, SDS-PAGE electrophoresis was performed and the protein transferred from the gel to a PVDF membrane (Millipore, USA). Then primary antibodies against cleaved caspases-3, cleaved PARP, AKT, phosphorylated AKT, ERK1/2, phosphorylated ERK1/2, EGFR, mTOR, phosphorylated mTOR and Tubulin (CST, USA) were diluted at 1:1000 at 4 °C overnight. The membranes were then washed and incubated with secondary antibodies dissolved in 5% nonfat milk. A chemiluminescence imaging system was used to detect the signals (Tanon, China).
(§2) EGFR is overexpressed in malignant urothelial cells, which is associated with the deterioration, invasiveness and metastasis of tumors. It is a potential therapeutic target for bladder carcinoma. Therefore, we examined the expression of EGFR and its downstream proteins after treating bladder cancer cells with CHNQD-01281 (Supplementary Fig. S11). […] Taken together, CHNQD-01281 inhibited the proliferation of bladder cancer cells and induced apoptosis through EGFR/PI3K/AKT and EGFR/ERK pathways to exert antitumor effects.

p-ERK/ERK = assay: Western blot of EGFR downstream proteins; type: cell-based, human; conditions: 0.16 µmol/L
Protocol: as §1, §2

p-mTOR/mTOR = assay: Western blot of EGFR downstream proteins; type: cell-based, human; conditions: 0.16 µmol/L
Protocol: as §1, §2

cleaved caspase-3 = assay: Western blot of apoptosis-related protein; type: cell-based, human; conditions: Fig. S11b
Protocol: as §1
(§3) Furthermore, treatment with CHNQD-01281 induced a dose-dependent increase in the total apoptosis of T24 and J82 cell lines. […] Meanwhile, the expression of apoptosis-related proteins cleaved PARP and cleaved caspase-3 were detected by Western blot. […] Therefore, CHNQD-01281 can induce DNA damage to arrest the cell cycle at the G0/G1 phase, affect the expression of DNA damage repair enzyme PARP, and finally induce apoptosis of bladder cancer cell lines.

cleaved PARP = assay: Western blot of apoptosis-related protein; type: cell-based, human; conditions: Fig. S11b
Protocol: as §1, §3

In the case of `C[C@H]1CCC/C=C/[C@@H]2C[C@H](O)C[C@H]2[C@H](OC(=O)/C=C/c2cccnc2)/C=C/C(=O)O1` [CHNQD-01281, Brefeldin A 4-O-3-(pyridin-3-yl) acrylate], the “reduction of Ki67 expression level (IHC)” value (T24 xenograft; 15 mg/kg, versus control) is reported as 38.32%, the “expression of EGFR in tumor (IHC)” value (T24 xenograft; 30 mg/kg) is reported as “significantly down-regulated expression of EGFR” and the “tumor growth inhibition rate (TGI %)” value (T24 xenograft; 30 mg/kg, i.p., QD, two weeks, tumor volume) is reported as 52.63%. The “reduction of Ki67 expression level (IHC)” value (T24 xenograft; 30 mg/kg, versus control) was 66.47%, the “reduction of tumor weight” value (T24 xenograft; 30 mg/kg, versus control) was 48.57% and the inhibition at 0.04 µM (J82 cell line; J82, 0.04 µmol/L) was 25.1%. The inhibition at 0.08 µM (J82 cell line; J82, 0.08 µmol/L) was 58.3%, the inhibition at 0.16 µM (J82 cell line; J82, 0.16 µmol/L) was 85.9% and the solubility ([1]; Saline or PBS used alone) was under 1000 µg/mL. The solubility ([1]; aqueous with cosolvent or surfactant or cyclodextrin, No. 2: Saline/DMSO 95/5, pH 7.4, 25 °C) was under 1000 µg/mL, the solubility ([1]; aqueous with cosolvent or surfactant or cyclodextrin, No. 3: PBS/DMSO 95/5, pH 7.4, 25 °C) was under 1000 µg/mL and the solubility ([1]; aqueous with cosolvent or surfactant or cyclodextrin, No. 4: Saline/PEG400 95/5, pH 7.4, 25 °C) was under 1000 µg/mL. It also gave a solubility ([1]; aqueous with cosolvent or surfactant or cyclodextrin, No. 5: Saline/PEG400 80/20, pH 7.4, 25 °C) of under 1000 µg/mL, a solubility ([1]; aqueous with cosolvent or surfactant or cyclodextrin, No. 6: Saline/DMSO/solutol HS-15 85/5/10, pH 7.4, 25 °C) of 12000 to 15000 µg/mL (≈ 29200 to 36500 µM) and a solubility ([1]; aqueous with cosolvent or surfactant or cyclodextrin, No. 7: Saline/solutol HS-15 95/5, pH 7.4, 25 °C) of under 1000 µg/mL. The solubility ([1]; aqueous with cosolvent or surfactant or cyclodextrin, No. 8: Saline/solutol HS-15 90/10, pH 7.4, 25 °C) was under 1000 µg/mL, the solubility ([1]; saline or isotonic, No. 1: Saline (0.9% NaCl) 100, pH 7.4, 25 °C) was under 1000 µg/mL and the “improvement of solubility versus BFA” value ([1]; saline with 5% DMSO and 10% solutol HS-15) was “approximately tenfold”. For the same compound, the “decrease of p-AKT/AKT expression level” value (p-AKT/AKT) was 99.96%, the “decrease of p-ERK/ERK expression level” value (p-ERK/ERK) was 96.95% and the “decrease of p-mTOR/mTOR expression level” value (p-mTOR/mTOR) was 60.36%. For the same compound, the “maximum expression level of cleaved caspase-3” value (cleaved caspase-3) was 1.23 fold of the control group and the “maximum expression level of cleaved PARP” value (cleaved PARP) was 0.95 fold of the control group.
